From patent EP1009397B1, “USE OF N,N-BIS (PHENYLCARBAMOYLMETHYL) DIMETHYLAMMONIUM CHLORIDE AND DERIVATIVES IN THE TREATMENT OF CHRONIC PAIN” (UCB Farchim S.A., priority 1997, dated 1999)

Columns and labels:
Acute toxicity in mice = conditions: mouse, in vivo, read-out: survival dose values (LD50)
Acute toxicity in rats = conditions: rat, in vivo, ip; intraperitoneal administration to rats; read-out: survival dose values (LD50)
[1] = Acute toxicity in rabbits; conditions: rabbit, in vivo; intravenous administration to rabbits; read-out: survival dose values (LD50)
Protocol: The experiments were carried out on animals that were administered intravenously or orally escalating doses of the test compounds.

CD-I mouse = assay: Formalin Paw Test; format: in vivo, mice; conditions: for ED50: subcutaneous
Protocol: In this test a hind paw (footpad) of conscious mice was injected with a formalin solution, which produced a painful stimulus, to which the mice reacted by licking the foot. Pretreatment of the animal with an effective analgesia reduced the pain and consequently the licking behavior. […] At t=0 minutes, either saline, […], 20, 40, 80 or 160 mg/kg was injected subcutaneously under the dorsal skin of the neck of a CD-I mouse (n=8 for each dose of Compound I) that weighed in the range of 20-45 grams. At t=60 minutes, formalin (2 different amounts were used in separate studies) was injected into the right hind paw (footpad) of each mouse, and the animal was released into the observation chamber (24-26°C). The mice were videotaped in groups of four for 60 minutes. The observations were made from viewing the videotapes activity, and the investigators looked for the following pain behavioral traits: licking of the right hind paw; lifting and licking of the right hind paw; resting/sleeping/being still; exploring or grooming (F.V. Abbott, K.B.J. Franklin and R.F. Wesbrook, Pain, 1995, 60 191-202). The corresponding behavioral traits were checked and recorded for each animal every two minutes for sixty minutes after the formalin injection.

CD-1 mice = assay: Formalin Tail Test; format: in vivo
Protocol: The protocol of this test is similar to that for the Paw Test described above, except that the injection of formalin was in the dorsal mid-tail region of the mouse instead of the hind paw. Behaviors such as licking of the tail (with and without lifting the tail), grooming, exploring and resting were recorded every two minutes for sixty minutes after injection of formalin (30 µl of 2.5% formalin)
Two modes of administration (subcutaneous and oral) of Compound I were studied. […] The ED50 was determined to be 40 mg/kg.
In the oral administration study, CD-1 mice weighing 15-30 grams each (n=8 or 4 for each dose of Compound I) were orally administered with either gum arabic (vehicle), 300 mg/kg or 700 mg/kg Compound I, 60 minutes prior to formalin (2.5%, 30 µ1)_injection. Behaviors such as licking of the tail (with and without lifting the tail), grooming, exploring and resting were recorded every two minutes for sixty minutes after injection of formalin (30 µl of 2.5% formalin). At an oral dose of 700mg/kg, Compound I reduced licking by 62%, while at 300 mg/kg, a reduction of 50% was determined

mouse tail = assay: Regional analgesic effects in mice (tourniquet at tail base, tail vein injection, tail-flick); format: in vivo; conditions: injection into the tail vein, tourniquet around the base of the tail
Source text: In these experiments a tourniquet is placed around the base of a mouse tail so as to occlude blood flow to and from the tail.

human forearm = assay: Intradermal injections into the human forearm; format: in vivo; conditions: intradermal injections of small volumes of solutions
guinea pig = conditions: intravenous administration; cited from earlier work
rabbit = conditions: intravenous administration; cited from earlier work

Work on `C[N+](C)(CC(=O)Nc1ccccc1)CC(=O)Nc1ccccc1.[Cl-]` [Compound I, N, N-Bis (phenylcarbamoylmethyl) dimethylammonium chloride] yielded an LD50 (Acute toxicity in mice; ip, intraperitoneal administration to mice) of 125 mg/kg, an LD50 (Acute toxicity in mice; sc, subcutaneous injection to mice) of 264 mg/kg and an LD50 (Acute toxicity in mice; oral administration to mice) of 117 mg/kg. For the same compound, the LD50 (Acute toxicity in rats) was 150 mg/kg, the LD50 [1] was 17 mg/kg and the ED50 (CD-I mouse; Mus musculus, sc, 20 µl of 2.0% formalin injected) was 50 mg/kg. For the same compound, the ED50 (CD-I mouse; Mus musculus, sc, 30 µl of 2.5% formalin injected) was 145 mg/kg, the inhibition at 160 mg/kg (CD-I mouse; Mus musculus, sc, 20 µl of 2.0% formalin injected, at 160 mg/kg subcutaneous) was greater than 80% and the “alteration of animal behavior” value (CD-I mouse; at the doses of the formalin paw test (up to 160 mg/kg subcutaneous)) was “no evident alteration of animal behavior other than the reduced reaction to the noxious stimulus”. The “inhibition of the delayed phase of licking” value (CD-I mouse; subcutaneous under the dorsal skin of the neck, 60 minutes before formalin into right hind paw) was “dose related inhibition of the delayed phase of licking”, the ED50 (CD-1 mice; Mus musculus, sc, subcutaneous administration, 30 µl of 2.5% formalin) was 40 mg/kg and the reduction of licking (CD-1 mice; oral 300 mg/kg, 60 minutes prior to formalin (2.5%, 30 µ1)) was 50%. The reduced licking (CD-1 mice; oral dose of 700mg/kg, 60 minutes prior to formalin (2.5%, 30 µ1)) was 62%, the “inhibition of the delayed phase of licking” value (CD-1 mice; subcutaneous administration under the dorsal skin of the neck, 30 µl of 2.5% formalin in dorsal mid-tail region) was “dose related inhibition of the delayed phase of licking” and the “block of tail-flick in response to heat” value (mouse tail) was “not to heat”. For the same compound, the “block of tail-flick in response to pin-prick” value (mouse tail) was “rapidly produced block of tail-flick in response to pin-prick”, the “effect on sensation of heat or touch” value (human forearm) was “little or no effect on sensation of heat or touch” and the “inhibition of pain induced by pin-prick” value (human forearm) was “long-lasting inhibition of pain induced by pin-prick”. For the same compound, the “Toxicity (LD100)” value (guinea pig) was 36 mg/kg and the “Toxicity (LD100)” value (rabbit) was 50 mg/kg.
In the case of `CCCCN1CCCCC1C(=O)Nc1c(C)cccc1C` (centres unmarked) [bupivacaine], the “effect on sensation of heat or touch” value (human forearm) is reported as “inhibited equally sensation of pain, heat and touch” and the “inhibition of pain induced by pin-prick” value (human forearm) is reported as “inhibited equally sensation of pain, heat and touch”.
For `CCN(CC)CC(=O)Nc1c(C)cccc1C` [lidocaine, reference compound], the “block of tail-flick in response to heat” value (mouse tail) was “inhibits responses both to pin-prick and to heat”, the “block of tail-flick in response to pin-prick” value (mouse tail) was “inhibits responses both to pin-prick and to heat” and the “effect on sensation of heat or touch” value (human forearm) was “inhibited equally sensation of pain, heat and touch”. For the same compound, the “inhibition of pain induced by pin-prick” value (human forearm) was “inhibited equally sensation of pain, heat and touch”.
